Experimental data reported in patent publication US20250228239A1, “MOLECULES HAVING PESTICIDAL UTILITY, AND INTERMEDIATES, COMPOSITIONS, AND PROCESSES, RELATED THERETO” (priority 2024, published 2025).
Read-outs that look alike come from different tables or passages of the source.

Assays:
[1] = tested on: Cabbage Looper (Trichoplusia ni, TRIPNI); assay: Bioassays on Cabbage Looper (CL), 128-well diet tray assay; type: in vivo; conditions: Trichoplusia ni
Method in brief: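 Activity is mean percent mortality over eight wells of second-instar larvae exposed to diet treated at 50 μg/cm^2 for 5–7 days at 25° C.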

[2] = tested on: Beet Armyworm (Spodoptera exigua, LAPHEG); assay: Bioassays on Beet Armyworm (BAW), 128-well diet tray assay; type: in vivo; conditions: Spodoptera exigua
Method in brief: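 One to five second-instar larvae per well on artificial diet surface-treated with 50 μg/cm^2 test molecule (applied in 90:10 acetone-water, dried), eight wells per compound. Trays held vented at 25° C., 14:10 light-dark for five to seven days; percent mortality averaged over the eight wells.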

[3] = Cabbage Looper, rating class, read-out: CL
[4] = Beet Armyworm, rating class, read-out: BAW
[5] = Table ABC: Biological Results, species CL, read-out: CL
[6] = Table ABC: Biological Results, species BAW, read-out: BAW
[7] = Cabbage Looper, Table ABC / ABC-DP rating, read-out: CL rating
[8] = Beet Armyworm, Table ABC / ABC-DP rating, read-out: BAW rating

SMILES | pest or weed control at 50 µg/cm2 [1, 3] | pest or weed control at 50 µg/cm2 [2, 4] | also measured
Cc1cc(NC(=O)[C@H]2[C@H](c3cc(Cl)c(Cl)c(Cl)c3)C2(Cl)Cl)cc(C(=O)Nc2cc(NC(=O)C(F)F)c(F)cc2F)c1Cl [F1498, 2-Chloro-5-((1R,3R)-2,2-dichloro-3-(3,4,5-trichlorophenyl)cyclopropane-1-carboxamido)-N-(5-(2,2-difluoroacetamido)-2,4-difluorophenyl)-3-methylbenzamide] | 50 to 100% | 50 to 100% | 
O=C(Nc1c(F)ccc(NC(=O)C(F)F)c1F)c1cc(NC(=O)[C@H]2[C@H](c3ccc(Cl)c(Cl)c3)C2(Cl)Cl)cc(F)c1Cl [F1345, 2-Chloro-5-((1R,3R)-2,2-dichloro-3-(3,4-dichlorophenyl)cyclopropane-1-carboxamido)-N-(3-(2,2-difluoroacetamido)-2,6-difluorophenyl)-3-fluorobenzamide] |  |  | pest or weed control at 50 µg/cm2 [1, 5]: 50 to 100%; pest or weed control at 50 µg/cm2 [2, 6]: 50 to 100%
O=C(Nc1ccccc1)c1cc(NC(=O)[C@H]2[C@H](c3ccc(F)c(Cl)c3)C2(Cl)Cl)cc(F)c1F (relative stereo) [F1207, trans-5-(2,2-Dichloro-3-(3-chloro-4-fluorophenyl)cyclopropane-1-carboxamido)-2,3-difluoro-N-phenylbenzamide] |  |  | pest or weed control at 50 µg/cm2 [1, 5]: 50 to 100%; pest or weed control at 50 µg/cm2 [2, 6]: 50 to 100%
Cc1cc(NC(=O)[C@H]2[C@H](c3ccc(Cl)c(Cl)c3)C2(Cl)Cl)cc(C(=O)Nc2c(F)ccc(N)c2F)c1Cl [F1426, N-(3-Amino-2,6-difluorophenyl)-2-chloro-5-((1R,3R)-2,2-dichloro-3-(3,4-dichlorophenyl)cyclopropane-1-carboxamido)-3-methylbenzamide] | 50 to 100% | 50 to 100% | 
Nc1ccc(F)c(NC(=O)c2cc(NC(=O)[C@H]3[C@H](c4ccc(Cl)c(Cl)c4)C3(Cl)Cl)cc(F)c2Cl)c1F [F1338, N-(3-Amino-2,6-difluorophenyl)-2-chloro-5-((1R,3R)-2,2-dichloro-3-(3,4-dichlorophenyl)cyclopropane-1-carboxamido)-3-fluorobenzamide] |  |  | pest or weed control at 50 µg/cm2 [1, 5]: 50 to 100%; pest or weed control at 50 µg/cm2 [2, 6]: 50 to 100%
O=C(NCC(F)(F)F)NNC(=O)c1cc(NC(=O)[C@H]2[C@H](c3cc(Cl)cc(Cl)c3)C2(Cl)Cl)ccc1Cl (relative stereo) [F2535, trans-2-(2-chloro-5-(2,2-dichloro-3-(3,5-dichlorophenyl)cyclopropane-1-carboxamido)benzoyl)-N-(2,2,2-trifluoroethyl)hydrazine-1-carboxamide] |  |  | pest or weed control at 50 µg/cm2 [1, 7]: 50 to 100%; pest or weed control at 50 µg/cm2 [2, 8]: 50 to 100%
O=C(Nc1ccc(F)cc1F)c1cc(NC(=O)[C@@H]2[C@@H](c3cc(F)c(F)c(F)c3)C2(Cl)Cl)ccc1Cl [F1749, 2-Chloro-5-((1S,3S)-2,2-dichloro-3-(3,4,5-trifluorophenyl)cyclopropane-1-carboxamido)-N-(2,4-difluorophenyl)benzamide] | 50 to 100% | 50 to 100% | 
Cc1cc(F)c(NC(=O)c2cc(NC(=O)[C@H]3[C@H](c4ccc(F)c(Cl)c4)C3(Cl)Cl)ccc2Cl)cc1N [F1135, N-(5-Amino-2-fluoro-4-methylphenyl)-2-chloro-5-((1R,3R)-2,2-dichloro-3-(3-chloro-4-fluorophenyl)cyclopropane-1-carboxamido)benzamide] |  |  | pest or weed control at 50 µg/cm2 [1, 5]: 50 to 100%; pest or weed control at 50 µg/cm2 [2, 6]: 50 to 100%
Cc1cc(NCC(C)c2ccccc2)ccc1NC(=O)c1cc(NC(=O)[C@H]2[C@H](c3cc(Cl)cc(Cl)c3)C2(Cl)Cl)ccc1Cl (relative stereo) [F1178, trans-2-Chloro-5-(2,2-dichloro-3-(3,5-dichlorophenyl)cyclopropane-1-carboxamido)-N-(2-methyl-4-((2-phenylpropyl)amino)phenyl)benzamide] |  |  | pest or weed control at 50 µg/cm2 [1, 5]: 50 to 100%; pest or weed control at 50 µg/cm2 [2, 6]: 50 to 100%
CC(CC(F)(F)F)C(=O)Nc1c(F)ccc(NC(=O)c2cc(NC(=O)[C@H]3[C@H](c4ccc(Cl)c(Cl)c4)C3(Cl)Cl)ccc2Cl)c1F (stereo partly drawn) [F1862, 2-Chloro-5-((1R,3R)-2,2-dichloro-3-(3,4-dichlorophenyl)cyclopropane-1-carboxamido)-N-(2,4-difluoro-3-(4,4,4-trifluoro-2-methylbutanamido)phenyl) benzamide] |  |  | pest or weed control at 50 µg/cm2 [1, 7]: 50 to 100%; pest or weed control at 50 µg/cm2 [2, 8]: 50 to 100%
CCOC(=O)Nc1c(F)ccc(NC(=O)c2cc(NC(=O)[C@H]3[C@H](c4ccc(Cl)c(Cl)c4)C3(Cl)Cl)ccc2Cl)c1F [F1476, Ethyl (3-(2-chloro-5-((1R,3R)-2,2-dichloro-3-(3,4-dichlorophenyl)cyclopropane-1-carboxamido)benzamido)-2,6-difluorophenyl)carbamate] | 50 to 100% | 50 to 100% | 
O=C(Nc1ccc(F)c(NC(=O)C2CCO2)c1F)c1cc(NC(=O)[C@H]2[C@H](c3ccc(F)c(C(F)(F)F)c3)C2(Cl)Cl)ccc1Cl (stereo partly drawn) [F1503, N-(3-(2-Chloro-5-((1R,3R)-2,2-dichloro-3-(4-fluoro-3-(trifluoromethyl)phenyl)cyclopropane-1-carboxamido)benzamido)-2,6-difluorophenyl)oxetane-2-carboxamide] | 50 to 100% | 50 to 100% | 
O=C(Nc1c(F)ccc(NC(=O)C(F)F)c1F)c1cc(NC(=O)[C@H]2[C@H](c3cc(Cl)c(Cl)c(Cl)c3)C2(Cl)Cl)cc(F)c1F [F1589, 5-((1R,3R)-2,2-Dichloro-3-(3,4,5-trichlorophenyl)cyclopropane-1-carboxamido)-N-(3-(2,2-difluoroacetamido)-2,6-difluorophenyl)-2,3-difluorobenzamide] | 50 to 100% | 50 to 100% | 
O=C(Nc1ccc(F)c(NC(=O)C(F)(F)c2ccccc2)c1F)c1cc(NC(=O)[C@H]2[C@H](c3ccc(Cl)c(Cl)c3)C2(Cl)Cl)ccc1Cl [F1471, 2-Chloro-5-((1R,3R)-2,2-dichloro-3-(3,4-dichlorophenyl)cyclopropane-1-carboxamido)-N-(3-(2,2-difluoro-2-phenylacetamido)-2,4-difluorophenyl)benzamide] | 50 to 100% | 50 to 100% | 
O=C(Nc1cc(NC(=O)C(F)F)c(F)cc1F)c1cc(NC(=O)[C@H]2[C@H](c3ccc(Cl)c(Cl)c3)C2(Cl)Cl)cc(F)c1F [F1583, 5-((1R,3R)-2,2-Dichloro-3-(3,4-dichlorophenyl)cyclopropane-1-carboxamido)-N-(5-(2,2-difluoroacetamido)-2,4-difluorophenyl)-2,3-difluorobenzamide] | 50 to 100% | 50 to 100% | 
O=C(Nc1ccc(F)c(NC(=O)C(F)(F)F)c1F)c1cc(NC(=O)[C@H]2[C@H](c3ccc(F)c(Cl)c3)C2(Cl)Cl)cc(F)c1Cl [F1291, 2-Chloro-5-((1R,3R)-2,2-dichloro-3-(3-chloro-4-fluorophenyl)cyclopropane-1-carboxamido)-N-(2,4-difluoro-3-(2,2,2-trifluoroacetamido)phenyl)-3-fluorobenzamide] |  |  | pest or weed control at 50 µg/cm2 [1, 5]: 50 to 100%; pest or weed control at 50 µg/cm2 [2, 6]: 50 to 100%
O=C(Nc1c(F)ccc(NC(=O)C(F)(F)F)c1F)c1cc(NC(=O)[C@H]2[C@H](c3ccc(F)c(C(F)(F)F)c3)C2(Cl)Cl)ccc1Cl [F1538, 2-Chloro-5-((1R,3R)-2,2-dichloro-3-(4-fluoro-3-(trifluoromethyl)phenyl)cyclopropane-1-carboxamido)-N-(2,6-difluoro-3-(2,2,2-trifluoroacetamido)phenyl)benzamide] | 50 to 100% | 50 to 100% | 
Cc1cccc(N(C)NC(=O)c2cc(NC(=O)[C@H]3[C@H](c4cc(Cl)cc(Cl)c4)C3(Cl)Cl)ccc2Cl)c1 (relative stereo) [F2574, trans-2,2-Dichloro-N-(4-chloro-3-(2-methyl-2-(m-tolyl)hydrazine-1-carbonyl)phenyl)-3-(3,5-dichlorophenyl)cyclopropane-1-carboxamide] |  |  | mortality at 50 µg/cm2 ([1]; 168 h, second instar larvae, 50 μg/cm^2 of test molecule on artificial diet, 25° C., five to seven days, average of eight wells, read-out: CL % Control (or Mortality) rating): 50 to 100%; pest or weed control at 50 µg/cm2 [1, 7]: 50 to 100%; mortality at 50 µg/cm2 ([2]; 168 h, second instar larvae, 50 μg/cm^2 of test molecule on artificial diet, 25° C., five to seven days, average of eight wells, read-out: BAW % Control (or Mortality) rating): 50 to 100%; pest or weed control at 50 µg/cm2 [2, 8]: 50 to 100%
CCNc1c(F)ccc(NC(=O)c2cc(NC(=O)[C@H]3[C@H](c4ccc(F)c(C(F)(F)F)c4)C3(Cl)Cl)ccc2Cl)c1F [F1762, 2-Chloro-5-((1R,3R)-2,2-dichloro-3-(4-fluoro-3-(trifluoromethyl)phenyl)cyclopropane-1-carboxamido)-N-(3-(ethylamino)-2,4-difluorophenyl)benzamide] | 50 to 100% | 50 to 100% | 
CC(=O)Nc1cc(NC(=O)c2cc(NC(=O)[C@H]3[C@H](c4cc(Cl)c(Cl)c(Cl)c4)C3(Cl)Cl)ccc2Cl)c(F)cc1F [F1517, N-(5-Acetamido-2,4-difluorophenyl)-2-chloro-5-((1R,3R)-2,2-dichloro-3-(3,4,5-trichlorophenyl)cyclopropane-1-carboxamido)benzamide] | 50 to 100% | 50 to 100% | 
CC(=O)Nc1c(F)ccc(NC(=O)c2cc(NC(=O)[C@H]3[C@H](c4ccc(F)c(C(F)(F)F)c4)C3(Cl)Cl)cc(F)c2F)c1F [F1570, N-(3-Acetamido-2,4-difluorophenyl)-5-((1R,3R)-2,2-dichloro-3-(4-fluoro-3-(trifluoromethyl)phenyl)cyclopropane-1-carboxamido)-2,3-difluorobenzamide] | 50 to 100% | 50 to 100% | 
